# Target: 5-hydroxytryptamine receptor 6 (Homo sapiens, UniProt P50406); also: in other assays of this panel Not Active means under 50% inhibition at 10 µM
# Assay: not given
# Type: cell membranes, HeLa, Membrane
# Conditions: hela
# Chain of 5-hydroxytryptamine receptor 6 (P50406 whole entry): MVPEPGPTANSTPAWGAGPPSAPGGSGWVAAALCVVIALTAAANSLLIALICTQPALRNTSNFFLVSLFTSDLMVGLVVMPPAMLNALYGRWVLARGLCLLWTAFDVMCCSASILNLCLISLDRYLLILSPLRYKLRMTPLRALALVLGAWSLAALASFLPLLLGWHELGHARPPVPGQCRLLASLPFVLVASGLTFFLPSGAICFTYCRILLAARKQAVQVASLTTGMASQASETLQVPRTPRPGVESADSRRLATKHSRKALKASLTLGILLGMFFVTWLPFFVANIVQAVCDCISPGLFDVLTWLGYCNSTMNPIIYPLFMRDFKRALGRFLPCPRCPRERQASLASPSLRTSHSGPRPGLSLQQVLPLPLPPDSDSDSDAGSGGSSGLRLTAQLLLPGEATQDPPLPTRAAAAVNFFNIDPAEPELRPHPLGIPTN
row,Structure (SMILES),IC50
1,COc1ccc(CN(CCN(C)C)c2ccccn2)cc1 [PYRILAMINE],Not Active
2,O=C(O)c1cn(C2CC2)c2cc(N3CCNCC3)c(F)cc2c1=O [CIPROFLOXACIN],Not Active
3,CCc1ccc(C(=O)C(C)CN2CCCCC2)cc1 (stereo unspecified) [EPERISONE],Not Active

# Same assay, conditions: read-out: IC50
row,Structure (SMILES),IC50
1,CNCCC=C1c2ccccc2CCc2ccccc21 [NORTRIPTYLINE],554 nM

# Same assay, conditions: read-out: Ki
row,Structure (SMILES),Ki
1,CNCCC=C1c2ccccc2CCc2ccccc21 [NORTRIPTYLINE],257 nM

# Tested on: not listed separately
# Assay: DRUGMATRIX: Calcium Channel Type L, Benzothiazepine radioligand binding (ligand: [3H] Diltiazem)
# Type: cell membranes, Rattus norvegicus, Wistar, Brain, Membrane
# Conditions: Not Active = under 50% inhibition at 10 µM
Structure (SMILES),IC50,Ki
COc1ccc(CN(CCN(C)C)c2ccccn2)cc1 [PYRILAMINE],Not Active,Not Active
O=C(O)c1cn(C2CC2)c2cc(N3CCNCC3)c(F)cc2c1=O [CIPROFLOXACIN],Not Active,Not Active
CCc1ccc(C(=O)C(C)CN2CCCCC2)cc1 (stereo unspecified) [EPERISONE],Not Active,Not Active

# Same assay, conditions: Not Active = under 50% inhibition at 10 µM; read-out: IC50
row,Structure (SMILES),IC50
1,CNCCC=C1c2ccccc2CCc2ccccc21 [NORTRIPTYLINE],2800 nM

# Same assay, conditions: Not Active = under 50% inhibition at 10 µM; read-out: Ki
row,Structure (SMILES),Ki
1,CNCCC=C1c2ccccc2CCc2ccccc21 [NORTRIPTYLINE],2490 nM

# Target: Histamine H2 receptor (Homo sapiens, UniProt P25021); also: in other assays of this panel Not Active means under 50% inhibition at 10 µM
# Sequence (P25021 whole entry): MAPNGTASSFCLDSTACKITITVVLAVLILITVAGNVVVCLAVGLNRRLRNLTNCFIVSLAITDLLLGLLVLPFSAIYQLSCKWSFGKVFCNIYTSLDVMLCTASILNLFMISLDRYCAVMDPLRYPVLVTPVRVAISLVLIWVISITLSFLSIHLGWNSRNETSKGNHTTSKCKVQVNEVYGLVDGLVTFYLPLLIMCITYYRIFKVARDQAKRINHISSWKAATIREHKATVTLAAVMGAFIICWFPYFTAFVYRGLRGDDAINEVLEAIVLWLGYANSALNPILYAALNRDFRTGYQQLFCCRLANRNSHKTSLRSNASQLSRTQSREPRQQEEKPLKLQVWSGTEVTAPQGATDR
# Assay: not given
# Type: cell membranes, CHO-K1, Membrane
# Conditions: cho-k1
row,Structure (SMILES),IC50
1,COc1ccc(CN(CCN(C)C)c2ccccn2)cc1 [PYRILAMINE],Not Active
2,O=C(O)c1cn(C2CC2)c2cc(N3CCNCC3)c(F)cc2c1=O [CIPROFLOXACIN],Not Active
3,CCc1ccc(C(=O)C(C)CN2CCCCC2)cc1 (stereo unspecified) [EPERISONE],Not Active

# Same assay, conditions: read-out: IC50
row,Structure (SMILES),IC50
1,CNCCC=C1c2ccccc2CCc2ccccc21 [NORTRIPTYLINE],2330 nM

# Same assay, conditions: read-out: Ki
row,Structure (SMILES),Ki
1,CNCCC=C1c2ccccc2CCc2ccccc21 [NORTRIPTYLINE],2300 nM

# Tested on: not listed separately
# Assay: DRUGMATRIX: GABAA, Chloride Channel, TBOB radioligand binding (ligand: [3H] TBOB)
# Type: cell membranes, Rattus norvegicus, Wistar, Cerebral cortex, Membrane
# Conditions: Not Active = under 50% inhibition at 10 µM
Structure (SMILES),IC50,Ki
COc1ccc(CN(CCN(C)C)c2ccccn2)cc1 [PYRILAMINE],Not Active,Not Active
CNCCC=C1c2ccccc2CCc2ccccc21 [NORTRIPTYLINE],Not Active,Not Active
O=C(O)c1cn(C2CC2)c2cc(N3CCNCC3)c(F)cc2c1=O [CIPROFLOXACIN],Not Active,Not Active
CCc1ccc(C(=O)C(C)CN2CCCCC2)cc1 (stereo unspecified) [EPERISONE],Not Active,Not Active

# Target: Cytochrome P450 2E1 (Homo sapiens, UniProt P05181); also: in other assays of this panel Not Active means under 50% inhibition at 10 µM
# Sequence (P05181 whole entry): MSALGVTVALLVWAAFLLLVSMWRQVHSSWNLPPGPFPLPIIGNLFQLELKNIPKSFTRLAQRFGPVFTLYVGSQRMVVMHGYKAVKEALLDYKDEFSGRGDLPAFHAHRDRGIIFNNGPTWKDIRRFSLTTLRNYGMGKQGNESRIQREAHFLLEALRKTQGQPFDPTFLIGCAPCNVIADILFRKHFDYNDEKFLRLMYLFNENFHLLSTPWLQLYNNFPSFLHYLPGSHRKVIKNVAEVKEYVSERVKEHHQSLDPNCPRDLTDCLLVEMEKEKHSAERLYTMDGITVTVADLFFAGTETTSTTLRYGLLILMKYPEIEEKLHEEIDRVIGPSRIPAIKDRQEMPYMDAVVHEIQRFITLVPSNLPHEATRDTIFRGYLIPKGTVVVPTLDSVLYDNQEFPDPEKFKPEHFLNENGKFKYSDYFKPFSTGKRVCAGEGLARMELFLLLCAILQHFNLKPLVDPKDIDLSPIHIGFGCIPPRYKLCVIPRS
# Assay: not given
# Conditions: bti-tn-5b1-4
Structure (SMILES),IC50,Ki
COc1ccc(CN(CCN(C)C)c2ccccn2)cc1 [PYRILAMINE],Not Active,Not Active
CNCCC=C1c2ccccc2CCc2ccccc21 [NORTRIPTYLINE],Not Active,Not Active
O=C(O)c1cn(C2CC2)c2cc(N3CCNCC3)c(F)cc2c1=O [CIPROFLOXACIN],Not Active,Not Active
CCc1ccc(C(=O)C(C)CN2CCCCC2)cc1 (stereo unspecified) [EPERISONE],Not Active,Not Active

# Target: Beta-3 adrenergic receptor (Homo sapiens, UniProt P13945)
# Sequence (P13945 whole entry): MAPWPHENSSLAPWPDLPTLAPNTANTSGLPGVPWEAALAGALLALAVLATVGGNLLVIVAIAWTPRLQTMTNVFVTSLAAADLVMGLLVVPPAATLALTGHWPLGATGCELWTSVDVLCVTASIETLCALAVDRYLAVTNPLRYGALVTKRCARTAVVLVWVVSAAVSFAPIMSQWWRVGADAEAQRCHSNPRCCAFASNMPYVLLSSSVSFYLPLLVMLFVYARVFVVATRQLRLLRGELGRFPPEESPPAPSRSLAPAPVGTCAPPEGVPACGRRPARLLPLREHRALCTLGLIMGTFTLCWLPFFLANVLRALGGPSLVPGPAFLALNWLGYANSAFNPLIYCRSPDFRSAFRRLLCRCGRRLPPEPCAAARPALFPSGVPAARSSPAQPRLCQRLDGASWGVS
# Assay: DRUGMATRIX: Adrenergic beta3 radioligand binding (ligand: [125I] Cyanopindolol)
# Type: cell membranes, HEK293, Membrane
# Conditions: hek293; Not Active = under 50% inhibition at 10 µM
row,Structure (SMILES),IC50
1,COc1ccc(CN(CCN(C)C)c2ccccn2)cc1 [PYRILAMINE],Not Active
2,CNCCC=C1c2ccccc2CCc2ccccc21 [NORTRIPTYLINE],Not Active
3,O=C(O)c1cn(C2CC2)c2cc(N3CCNCC3)c(F)cc2c1=O [CIPROFLOXACIN],Not Active
4,CCc1ccc(C(=O)C(C)CN2CCCCC2)cc1 (stereo unspecified) [EPERISONE],Not Active

# Target: T1, Adenosine receptor A3 (Homo sapiens, UniProt P0DMS8);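 also: radioligand binding assay with AB-MECA serving as the labeled ligand; in other assays of this panel Not Active means under 50% inhibition at 10 µM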
# T1 sequence (P0DMS8 whole entry): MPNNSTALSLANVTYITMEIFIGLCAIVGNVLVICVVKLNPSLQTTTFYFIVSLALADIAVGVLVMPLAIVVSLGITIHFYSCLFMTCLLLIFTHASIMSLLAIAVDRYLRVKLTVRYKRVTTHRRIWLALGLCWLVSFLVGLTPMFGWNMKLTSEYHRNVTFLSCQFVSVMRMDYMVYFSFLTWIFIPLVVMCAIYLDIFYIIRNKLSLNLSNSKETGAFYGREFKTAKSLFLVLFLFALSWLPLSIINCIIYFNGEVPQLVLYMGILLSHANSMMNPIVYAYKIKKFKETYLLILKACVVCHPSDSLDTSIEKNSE
# Assay: not given
# Type: cell membranes, CHO-K1, Membrane
# Conditions: cho-k1
row,Structure (SMILES),IC50
1,COc1ccc(CN(CCN(C)C)c2ccccn2)cc1 [PYRILAMINE],Not Active
2,CNCCC=C1c2ccccc2CCc2ccccc21 [NORTRIPTYLINE],Not Active
3,O=C(O)c1cn(C2CC2)c2cc(N3CCNCC3)c(F)cc2c1=O [CIPROFLOXACIN],Not Active
4,CCc1ccc(C(=O)C(C)CN2CCCCC2)cc1 (stereo unspecified) [EPERISONE],Not Active

# Target: T2, Polyunsaturated fatty acid lipoxygenase ALOX15 (Oryctolagus cuniculus, UniProt P12530)
# T2 sequence (P12530 whole entry): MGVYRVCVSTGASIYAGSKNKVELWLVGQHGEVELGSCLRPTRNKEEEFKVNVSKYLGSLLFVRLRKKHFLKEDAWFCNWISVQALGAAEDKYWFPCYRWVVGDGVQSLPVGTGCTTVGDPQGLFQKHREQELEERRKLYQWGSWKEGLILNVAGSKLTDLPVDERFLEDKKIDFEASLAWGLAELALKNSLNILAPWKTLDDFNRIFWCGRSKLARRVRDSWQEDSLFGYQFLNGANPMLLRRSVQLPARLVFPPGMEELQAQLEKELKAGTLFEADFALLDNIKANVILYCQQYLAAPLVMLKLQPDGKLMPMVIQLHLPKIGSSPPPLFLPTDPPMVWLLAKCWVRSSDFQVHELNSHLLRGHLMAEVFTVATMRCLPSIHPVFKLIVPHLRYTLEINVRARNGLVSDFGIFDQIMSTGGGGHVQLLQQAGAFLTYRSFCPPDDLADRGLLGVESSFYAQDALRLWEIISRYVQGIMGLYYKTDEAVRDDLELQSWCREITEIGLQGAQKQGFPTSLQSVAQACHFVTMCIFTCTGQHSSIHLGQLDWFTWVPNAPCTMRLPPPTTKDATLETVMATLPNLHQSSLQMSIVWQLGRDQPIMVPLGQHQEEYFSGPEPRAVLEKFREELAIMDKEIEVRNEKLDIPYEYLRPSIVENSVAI
# Assay: biochemical
# Type: tissue-based, Reticulocytes
# Conditions: reticulocytes
row,Structure (SMILES),IC50
1,COc1ccc(CN(CCN(C)C)c2ccccn2)cc1 [PYRILAMINE],Not Active
2,CNCCC=C1c2ccccc2CCc2ccccc21 [NORTRIPTYLINE],Not Active
3,O=C(O)c1cn(C2CC2)c2cc(N3CCNCC3)c(F)cc2c1=O [CIPROFLOXACIN],Not Active
4,CCc1ccc(C(=O)C(C)CN2CCCCC2)cc1 (stereo unspecified) [EPERISONE],Not Active

# Target: T3, C-X-C chemokine receptor type 2 (Homo sapiens, UniProt P25025); also: in other assays of this panel Not Active means under 50% inhibition at 10 µM
# T3 sequence (P25025 whole entry): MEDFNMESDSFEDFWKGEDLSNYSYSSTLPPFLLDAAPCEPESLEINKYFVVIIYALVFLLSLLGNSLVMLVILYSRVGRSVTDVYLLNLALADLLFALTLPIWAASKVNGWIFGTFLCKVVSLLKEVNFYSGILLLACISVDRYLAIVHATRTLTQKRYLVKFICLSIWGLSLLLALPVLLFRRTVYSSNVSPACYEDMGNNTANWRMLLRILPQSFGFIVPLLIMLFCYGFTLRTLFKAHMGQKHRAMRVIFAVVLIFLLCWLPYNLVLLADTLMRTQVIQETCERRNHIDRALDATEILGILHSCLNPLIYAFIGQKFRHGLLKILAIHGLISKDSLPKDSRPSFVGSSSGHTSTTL
# Assay: not given
# Type: cell membranes, Membrane
# Conditions: cho-k1
row,Structure (SMILES),IC50
1,COc1ccc(CN(CCN(C)C)c2ccccn2)cc1 [PYRILAMINE],Not Active
2,CNCCC=C1c2ccccc2CCc2ccccc21 [NORTRIPTYLINE],Not Active
3,O=C(O)c1cn(C2CC2)c2cc(N3CCNCC3)c(F)cc2c1=O [CIPROFLOXACIN],Not Active
4,CCc1ccc(C(=O)C(C)CN2CCCCC2)cc1 (stereo unspecified) [EPERISONE],Not Active

# Target: D(1A) dopamine receptor (Homo sapiens, UniProt P21728)
# Sequence (P21728 whole entry): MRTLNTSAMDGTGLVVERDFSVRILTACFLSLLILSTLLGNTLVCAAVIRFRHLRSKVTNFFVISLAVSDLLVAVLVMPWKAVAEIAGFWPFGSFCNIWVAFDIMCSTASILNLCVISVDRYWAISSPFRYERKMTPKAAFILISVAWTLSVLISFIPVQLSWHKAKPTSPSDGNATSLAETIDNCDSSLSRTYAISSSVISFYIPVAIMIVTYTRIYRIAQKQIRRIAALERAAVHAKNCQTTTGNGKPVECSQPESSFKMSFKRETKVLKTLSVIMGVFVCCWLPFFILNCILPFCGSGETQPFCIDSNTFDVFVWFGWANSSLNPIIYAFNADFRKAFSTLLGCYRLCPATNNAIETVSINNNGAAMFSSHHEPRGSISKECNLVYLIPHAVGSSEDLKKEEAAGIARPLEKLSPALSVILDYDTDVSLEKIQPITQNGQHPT
# Assay: DRUGMATRIX: Dopamine D1 radioligand binding (ligand: [3H] SCH-23390)
# Type: cell membranes, CHO, Membrane
# Conditions: Not Active = under 50% inhibition at 10 µM; read-out: IC50
row,Structure (SMILES),IC50
1,CNCCC=C1c2ccccc2CCc2ccccc21 [NORTRIPTYLINE],539 nM

# Same assay, conditions: Not Active = under 50% inhibition at 10 µM; read-out: Ki
row,Structure (SMILES),Ki
1,CNCCC=C1c2ccccc2CCc2ccccc21 [NORTRIPTYLINE],269 nM

# Same assay, conditions: cho; Not Active = under 50% inhibition at 10 µM
row,Structure (SMILES),IC50
1,COc1ccc(CN(CCN(C)C)c2ccccn2)cc1 [PYRILAMINE],Not Active
2,O=C(O)c1cn(C2CC2)c2cc(N3CCNCC3)c(F)cc2c1=O [CIPROFLOXACIN],Not Active
3,CCc1ccc(C(=O)C(C)CN2CCCCC2)cc1 (stereo unspecified) [EPERISONE],Not Active

# Target: 5-hydroxytryptamine receptor 2B (Homo sapiens, UniProt P41595); also: in other assays of this panel Not Active means under 50% inhibition at 10 µM
# Sequence (P41595 whole entry): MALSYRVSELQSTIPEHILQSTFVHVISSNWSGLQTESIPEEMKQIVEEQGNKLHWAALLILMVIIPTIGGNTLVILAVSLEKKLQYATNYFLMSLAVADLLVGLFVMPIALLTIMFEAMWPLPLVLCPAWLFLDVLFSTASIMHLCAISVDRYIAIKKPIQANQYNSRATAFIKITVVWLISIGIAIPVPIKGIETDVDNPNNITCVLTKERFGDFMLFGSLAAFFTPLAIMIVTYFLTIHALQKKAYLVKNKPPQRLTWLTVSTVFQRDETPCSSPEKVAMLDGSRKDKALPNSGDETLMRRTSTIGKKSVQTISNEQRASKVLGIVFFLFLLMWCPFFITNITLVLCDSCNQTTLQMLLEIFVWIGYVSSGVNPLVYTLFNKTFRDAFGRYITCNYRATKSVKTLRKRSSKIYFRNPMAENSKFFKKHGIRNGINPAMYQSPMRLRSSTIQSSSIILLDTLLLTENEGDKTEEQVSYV
# Assay: not given
# Type: cell membranes, CHO-K1, Membrane
# Conditions: cho-k1
row,Structure (SMILES),IC50
1,O=C(O)c1cn(C2CC2)c2cc(N3CCNCC3)c(F)cc2c1=O [CIPROFLOXACIN],Not Active
2,CCc1ccc(C(=O)C(C)CN2CCCCC2)cc1 (stereo unspecified) [EPERISONE],Not Active

# Same assay, conditions: read-out: IC50
row,Structure (SMILES),IC50
1,COc1ccc(CN(CCN(C)C)c2ccccn2)cc1 [PYRILAMINE],2790 nM
2,CNCCC=C1c2ccccc2CCc2ccccc21 [NORTRIPTYLINE],136 nM

# Same assay, conditions: read-out: Ki
row,Structure (SMILES),Ki
1,COc1ccc(CN(CCN(C)C)c2ccccn2)cc1 [PYRILAMINE],1770 nM
2,CNCCC=C1c2ccccc2CCc2ccccc21 [NORTRIPTYLINE],86 nM

# Target: T4, Alpha-1B adrenergic receptor (Rattus norvegicus, UniProt P15823)
# T4 sequence (P15823 whole entry): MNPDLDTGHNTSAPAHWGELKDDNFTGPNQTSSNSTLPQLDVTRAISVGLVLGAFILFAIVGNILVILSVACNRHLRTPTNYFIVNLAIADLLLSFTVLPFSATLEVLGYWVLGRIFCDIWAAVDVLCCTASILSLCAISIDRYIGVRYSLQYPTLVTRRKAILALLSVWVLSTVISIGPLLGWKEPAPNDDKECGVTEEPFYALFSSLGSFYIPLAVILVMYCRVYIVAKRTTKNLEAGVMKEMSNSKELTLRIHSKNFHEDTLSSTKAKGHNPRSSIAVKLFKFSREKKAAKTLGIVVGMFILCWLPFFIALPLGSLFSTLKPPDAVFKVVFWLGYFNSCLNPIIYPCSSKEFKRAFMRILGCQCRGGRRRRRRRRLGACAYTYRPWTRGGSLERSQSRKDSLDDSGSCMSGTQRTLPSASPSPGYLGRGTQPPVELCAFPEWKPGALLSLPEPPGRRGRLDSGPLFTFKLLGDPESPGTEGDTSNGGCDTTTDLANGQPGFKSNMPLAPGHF
# Assay: DRUGMATRIX: Alpha-1B adrenergic receptor radioligand binding (ligand: prazosin)
# Type: cell membranes, Wistar, Liver, Membrane
# Conditions: Not Active = under 50% inhibition at 10 µM
row,Structure (SMILES),IC50
1,COc1ccc(CN(CCN(C)C)c2ccccn2)cc1 [PYRILAMINE],Not Active
2,O=C(O)c1cn(C2CC2)c2cc(N3CCNCC3)c(F)cc2c1=O [CIPROFLOXACIN],Not Active
3,CCc1ccc(C(=O)C(C)CN2CCCCC2)cc1 (stereo unspecified) [EPERISONE],Not Active

# Same assay, conditions: Not Active = under 50% inhibition at 10 µM; read-out: IC50
row,Structure (SMILES),IC50
1,CNCCC=C1c2ccccc2CCc2ccccc21 [NORTRIPTYLINE],207 nM

# Same assay, conditions: Not Active = under 50% inhibition at 10 µM; read-out: Ki
row,Structure (SMILES),Ki
1,CNCCC=C1c2ccccc2CCc2ccccc21 [NORTRIPTYLINE],114 nM

# Reference: ChEMBL document CHEMBL1909046, “DrugMatrix in vitro pharmacology data”
